{"source": "patent US20240392302A1", "about": "“METHOD FOR DETECTING AND QUANTIFYING RNA” (FLUORESCENCE DIAGNOSIS (SHANGHAI) BIOTECH COMPANY LTD., priority 2021, published 2024)", "molecules": {"B1": {"name": "ACTB-N16-1: ACTB-N16-1 chimeric RNA, SEQ ID NO: 13 (nucleic acid)", "chain": "ANGGANGANGANANCGCCGCGCNCGNCGNCGACAACGGCNCCGGCANGNGCAAGGCCGGCNNCGCGGGCGACGANGCCCCCCGGGCCGNCNNCCCCNCCANCGNGGGGCGCCCCAGGCACCAGGGCGNGANGGNGGGCANGGGNCAGAAGGANNCCNANGNGGGCGACGAGGCCCAGAGCAAGAGAGGCANCCNCACCCNGAAGNACCCCANCGAGCACGGCANCGNCACCAACNGGGACGACANGGAGAAAANCNGGCACCACACCNNCNACAANGAGCNGCGNGNGGCNCCCGAGGAGCACCCCGNGCNGCNGACCGAGGCCCCCCNGAACCCCAAGGCCAACCGCGAGAAGANGACCCAGANCANGNNNGAGACCNNCAACACCCCAGCCANGNACGNNGCNANCCAGGCNGNGCNANCCCNGNACGCCNCNGGCCGNACCACNGGCANCGNGANGGACNCCGGNGACGGGGNCACCCACACNGNGCCCANCNACGAGGGGNANGCCCNCCCCCANGCCANCCNGCGNCNGGACCNGGCNGGCCGGGACCNGACNGACNACCNCANGAAGANCCNCACCGAGCGCGGCNACAGCNNCACCACCACGGCCGAGCGGGAAANCGNGCGNGACANNAAGGAGAAGCNGNGCNACGNCGCCCNGGACNNCGAGCAAGAGANGGCCACGGCNGCNNCCAGCNCCNCCCNGGAGAAGAGCNACGAGCNGCCNGACGGCCAGGNCANCACCANNGGCAANGAGCGGNNCCGCNGCCCNGAGGCACNCNNCCAGCCNNCCNNCCNGGGCANGGAGNCCNGNGGCANCCACGAAACNACCNNCAACNCCANCANGAAGNGNGACGNGGACANCCGCAAAGACCNGNACGCCAACACAGNGCNGNCNGGCGGCACCACCANGNACCCNGGCANNGCCGACAGGANGCAGAAGGAGANCACNGCCCNGGCACCCAGCACAANGAAGANCAAGANCANNGCNCCNCCNGAGCGCAAGNACNCCGNGNGGANCGGCGGCNCCANCCNGGCCNCGCNGNCCACCNNCCAGCAGANGNGGANCAGCAAGCAGGAGNANGACGAGNCCGGCCCCNCCANCGNCCACCGCAAANGCNNCNAGCNCGAGGCCGCGGGCNCCAGGNGCNGCNNCGGCAGGNAACGGACNNAGANCCACNGNACGCCCGCGGC"}}, "key": {"[1]": {"system": "RNA aptamers", "details": "cited from earlier work"}, "[2]": {"assay": "N16-1 as a label for RNA extraction and purification", "details": "total RNA of COS-7 cells; eluent vs crushed supernatant, incubated with I-5-14", "procedure": "In order to detect the application of N16-1 to RNA extraction and purification, the pCDNA3.1/hygro(+)-ACTB-N16-1 recombinant plasmids in Example 13 were transfected into COS-7 cells, cells were collected 24 h later, and total RNA of cells was extracted by using Eastep Super total RNA extraction kit (Promega). The extracted total RNA dissolved in a buffer solution having a pH value of 7.4 and containing 40 mM of HEPES, 125 mM of KCl and 5 mM of MgCl2, and was incubated at 70° C. for 10 min, and then was placed at room temperature for more than 30 min.\n500 μL of Activated Thiol Sepharose 4B (GE Healthcare) was taken and was washed twice with 500 μL of PBS, and PBS containing 10 mM of TCEP (Sigma) was added for incubation at room temperature for 1 h. 500 μL of PBS was used for cleaning twice, I-5-14 fluorophore molecules (Mal-I-5-14) containing maleic amide were added for reaction at room temperature for 30 min, and then 500 μL of PBS was used for cleaning for three times. […]\nWith crushed supernatant of blank cells as control, the fluorescence of the crushed supernatant of cells incubated with fluorophore I-5-14, and that of the eluent after final high temperature elution incubated with fluorophore I-5-14 were respectively detected."}}, "data": [{"molecule": "CN(C)c1ccc(C(=C2C=CC(=[N+](C)C)C=C2)c2ccccc2)cc1", "note": "[MG, malachite green]", "values": [{"measurement": "fluorescence enhancement multiple", "setting": "[1]", "value": 2360}]}, {"molecule": "B1", "values": [{"measurement": "enrichment of RNA on Mal-I-5-14 microbeads", "setting": "[2]", "value": "well enriched"}]}]}
